Source: patent US20090023738A1, “DIAMINOPYRIMIDINES AS MODULATORS OF THE EP2 RECEPTOR” (priority 2007, published 2009)

Assays:
[1] = target: T1, EP2 subtype of the human PGE2 receptor (Homo sapiens, UniProt P43116); test: cAMP antagonism assay (EP2 receptor signal, HTRF cAMP detection); type: cell-based; details: in the presence of the agonist PGE2
T1 construct: host or cells: cells in a cell culture plate
From the text: 1. Detection of the Antagonism of the Human Prostaglandin E2 (Subtype EP2 Receptor Signal
(§1) The binding of PGE2 to the EP2 subtype of the human PGE2 receptor induces activation of membrane-associated adenylate cyclases and leads to the formation of cAMP. In the presence of the phosphodiesterase inhibitor IBMX, cAMP which has accumulated due to this stimulation and been released by cell lysis is employed in a competitive detection method. In this assay, the cAMP in the lysate competes with cAMP-XL665 for binding of an Eu cryptate-labelled anti-cAMP antibody.
(§2) The two signals are measured in a suitable measuring instrument with a time lag, i.e. after the background fluorescence has declined.
1.2.1 Antagonism Assay (Data for Each Well of a 384-Well plate): […]
After preincubation at room temperature (RT) for 30 minutes, 5 μl of a 4×PGE2 solution (11 nM) are added, and incubation is carried out in the presence of the agonist at RT for a further 60 min (volume: 20 μl) before the reaction is then stopped by adding 5 μl of lysis buffer and incubated at RT for a further 20 min (volume: ˜25 μl). The cell lysate is then transferred into a measuring plate and measured in accordance with the manufacturer's information (cyclic AMP kit Cisbio International # 62AMPPEC).

[2] = target: T1, EP2 subtype of the human PGE2 receptor; test: cellular cAMP agonism assay; type: cell-based; details: without PGE2
Method: as §1, §2
1.2.2 Agonism Assay (Data for Each Well of a 384-Well Plate): […]
After incubation at room temperature (RT; volume: 15 μl) for 60 minutes, the reaction is then stopped by adding 5 μl of lysis buffer and incubated at RT for a further 20 min (volume: 20 μl). The cell lysate is then transferred into a measuring plate and measured in accordance with the manufacturer's information (cyclic AMP kit Cisbio International # 62AMPPEC).

T1 sequence (P43116 whole entry): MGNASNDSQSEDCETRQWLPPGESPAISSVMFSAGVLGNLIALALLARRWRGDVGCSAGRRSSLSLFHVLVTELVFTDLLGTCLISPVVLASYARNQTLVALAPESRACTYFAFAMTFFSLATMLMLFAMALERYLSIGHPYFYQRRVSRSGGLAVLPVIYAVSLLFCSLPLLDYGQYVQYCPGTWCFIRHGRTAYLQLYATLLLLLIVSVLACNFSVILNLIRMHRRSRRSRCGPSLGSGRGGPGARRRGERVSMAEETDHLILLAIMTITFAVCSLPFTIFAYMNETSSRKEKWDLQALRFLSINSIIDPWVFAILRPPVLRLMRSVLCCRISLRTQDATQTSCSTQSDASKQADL

IC50 [1] [nM] | effect in the cellular agonism test [2] | SMILES
1400 |  | Cc1[nH]c2c(F)ccc(C)c2c1CCNc1cc(NCc2ccccc2-c2ccccc2)ncn1 [Example 17, N-Biphenyl-2-ylmethyl-N′-[2-(7-fluoro-2,4-dimethyl-1H-indol-3-yl)ethyl]-pyrimidine-4,6-diamine]
1600 | no inhibition | Cc1[nH]c2c(F)ccc(C)c2c1CCNc1cc(NCc2cccnc2)ncn1 [Example 6, N-[2-(7-Fluoro-2,4-dimethyl-1H-indol-3-yl)ethyl]-N′-pyridin-3-ylmethylpyrimidine-4,6-diamine]
